{"source": "patent US20080107625A1", "about": "“Inhibitors of Hepatitis C Virus” (Bristol-Myers Squibb Company, priority 2006, published 2008)", "type_in_all_cases": "biochemical", "key": {"[1]": {"target": "HCV NS3/4A protease complex, BMS strain (Hepatitis C virus genotype 1a, UniProt P27958, C1454S/C1711G)", "sequence (P27958 1027-1711 C1454S/C1711G, one chain of several)": "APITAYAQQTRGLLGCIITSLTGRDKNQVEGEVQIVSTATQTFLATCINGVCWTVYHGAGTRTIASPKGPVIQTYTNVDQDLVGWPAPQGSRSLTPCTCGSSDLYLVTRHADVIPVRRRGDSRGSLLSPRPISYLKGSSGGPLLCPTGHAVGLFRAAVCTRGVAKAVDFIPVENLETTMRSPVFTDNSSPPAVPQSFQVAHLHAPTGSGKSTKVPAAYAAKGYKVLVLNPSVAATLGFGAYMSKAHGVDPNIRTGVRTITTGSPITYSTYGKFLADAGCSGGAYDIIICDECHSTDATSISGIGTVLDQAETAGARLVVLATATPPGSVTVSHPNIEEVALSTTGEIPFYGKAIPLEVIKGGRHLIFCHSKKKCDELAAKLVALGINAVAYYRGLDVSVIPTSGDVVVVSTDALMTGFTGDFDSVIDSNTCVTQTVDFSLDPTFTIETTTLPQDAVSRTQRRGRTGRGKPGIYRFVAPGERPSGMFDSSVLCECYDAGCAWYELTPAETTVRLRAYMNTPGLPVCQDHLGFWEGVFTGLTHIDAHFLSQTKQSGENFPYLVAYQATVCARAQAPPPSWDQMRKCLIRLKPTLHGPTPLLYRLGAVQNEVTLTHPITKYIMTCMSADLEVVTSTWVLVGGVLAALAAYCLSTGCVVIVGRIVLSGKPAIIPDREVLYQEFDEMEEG", "test": "FRET peptide assay to monitor HCV NS3/4A proteolytic activity (BMS strain)", "details": "read-out: IC50 against the NS3/4A BMS strain in the enzyme assay", "description": "HCV NS3 protease complexes, derived from the BMS strain, H77 strain or J4L6S strain, were generated, as described below. These purified recombinant proteins were generated for use in a homogeneous assay (see below) to provide an indication of how effective compounds of the present disclosure would be in inhibiting HCV NS3 proteolytic activity.\nSerum from an HCV-infected patient was obtained from Dr. T. Wright, San Francisco Hospital. […]\nIn order to monitor HCV NS3/4A protease activity, an NS3/4A peptide substrate was used. […] The peptide also contains a fluorescence donor, EDANS, near one end of the peptide and an acceptor, DABCYL, near the other end. The fluorescence of the peptide is quenched by […] resonance energy transfer (RET) between the donor and the acceptor, but as the NS3 protease cleaves the peptide the products are released from RET quenching and the fluorescence of the donor becomes apparent.\nThe peptide substrate was incubated with one of the three recombinant NS3/4A protease complexes, in the absence or presence of a compound of the present disclosure. The inhibitory effects of a compound was determined by monitoring the formation of fluorescent reaction product in real time using a Cytofluor Series 4000. […]"}, "[2]": {"target": "T1, human pancreatic chymotrypsin (Homo sapiens, UniProt P17538)", "T1 construct": "purchased Sigma or EMDbiosciences", "T1 sequence (P17538 19-263)": "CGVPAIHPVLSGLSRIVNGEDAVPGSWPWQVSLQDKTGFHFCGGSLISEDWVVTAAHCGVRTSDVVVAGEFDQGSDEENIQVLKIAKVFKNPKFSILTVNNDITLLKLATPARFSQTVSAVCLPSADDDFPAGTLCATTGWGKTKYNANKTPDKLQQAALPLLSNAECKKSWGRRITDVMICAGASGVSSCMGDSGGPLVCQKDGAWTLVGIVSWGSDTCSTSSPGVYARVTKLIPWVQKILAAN", "test": "Specificity assay, chymotrypsin", "experimental": "(§1) The specificities of compounds of the present disclosure were determined against a variety of serine proteases: human neutrophil elastase (HNE), porcine pancreatic elastase (PPE) and human pancreatic chymotrypsin and one cysteine protease: human liver cathepsin B. In all cases, a 96-well plate format protocol using colorimetric p-nitroaniline (pNA) substrate or fluorometric Amino-Methyl-Coumarin (AMC) substrate, specific for each enzyme was used as described previously (PCT Patent Application No. WO 00/09543) with some modifications. All enzymes were purchased from Sigma or EMDbiosciences while the substrates were from Bachem.\n(§2) Each pNA assay included a 2 h enzyme-inhibitor pre-incubation at room temperature followed by addition of substrate and hydrolysis to ˜15% conversion as measured on a Spectramax Pro microplate reader. The cathepsin B assay was initiated by adding substrate to a 10 min enzyme-inhibitor pre-incubation at room temperature, and the assay plate measured immediately using the Cytofluor Series 4000. Compound concentrations varied from 100 to 0.4 μM depending on their potency.\n50 mM Tris(hydroxymethyl)aminomethane hydrochloride (Tris-HCl) pH 8, 0.5 M Sodium Sulfate (Na2SO4), 50 mM NaCl, 0.1 mM EDTA, 3% DMSO, 0.01% Tween-20 with: […]\n(§3) The percentage of inhibition was calculated using the formula: [1−((UVinh−UVblank)/(UVctl−UVblank))]×100 […]"}, "human liver cathepsin B": {"target": "T2, human liver cathepsin B (Homo sapiens, UniProt P07858)", "T2 construct": "purchased Sigma or EMDbiosciences; host or cells: human liver (as named)", "test": "Specificity assay, cathepsin B", "experimental": "as §1\nas §2, with “potency. […]” for “potency.”\nas §3"}}, "note": "pIC50: −log10 of the molar value.", "data": [{"smiles": "CC(C)(C)OC(=O)N[C@H]1CN(C2CC2)CCC/C=C\\C2C[C@@]2(C(=O)NS(=O)(=O)C2CC2)NC(=O)[C@@H]2C[C@@H](Oc3ccccn3)CN2C1=O", "note": "(stereo partly drawn) [Compound 1]", "values": [{"measurement": "pIC50", "setting": "[1]", "value": 7.01}, {"measurement": "pIC50", "setting": "[2]", "value": "< 4.00"}, {"measurement": "pIC50", "setting": "human liver cathepsin B", "value": "< 4.00"}]}]}
